Several values for one entry are separate records, joined by “and”; a condition that tells them apart may be missing. Equal entries are not always repeated. Entries after “also recorded” stand apart in the source; their conditions may differ. Where two headings read alike, the source gives them in different places.
How the values were obtained:
[1] = system: dba/2J-mdx mice; experiment: Flow cytometry of muscle macrophages in dba/2J-mdx mice; type: in vivo, mouse
[2] = system: FAPs; type: cell-based, human
[3] = system: FAPs
[4] = system: myosin light chain 2 (p-MLC2); type: cell-based, human
[5] = system: FAPs; type: cell-based, human; conditions: for increase in FAPs migration: vs untreated FAPs
[6] = system: dba/2J-mdx mice; experiment: Quadriceps histology and immunofluorescence in dba/2J-mdx mice; type: in vivo, mouse
[7] = system: FAPs; type: cell-based, human; remark: listed apart in the source
[8] = system: dba/2J-mdx mice; experiment: Fasudil treatment of dba/2J-mdx mice: behaviour and weight; conditions: mouse, in vivo
[9] = system: RhoA pathway; experiment: RhoA downstream effectors in quadriceps of dba/2J-mdx mice (qPCR, IF); type: in vivo, mouse
[10] = system: dba/2J-mdx mice; experiment: Grip strength test in dba/2J-mdx mice; type: in vivo, mouse; conditions: after six weeks of treatment, vs non-treated mice
[11] = system: FAPs; type: cell-based, human; conditions: for increase in FAPs proliferation: vs untreated FAPs
[12] = system: dba/2J-mdx mice; experiment: Cytokine array of quadriceps in dba/2J-mdx mice; type: in vivo, mouse; conditions: treated vs non-treated mice
[13] = system: RhoA-GTP; type: cell-based, human; conditions: DMD-FAPs, PDGF-AA 50 ng/ml 20 min, vs untreated FAPs

## O=S(=O)(c1cccc2cnccc12)N1CCCNCC1 [Fasudil, 5-(1,4-diazepan-1-ylsulfonyl)isoquinoline]
[1]; flow cytometry, treated vs non-treated mice
  decrease in the number of F4/80 positive cells: 18.3%
[1]; skeletal muscles of treated mice
  reduction in the expression levels of CD163 marker in macrophages: 31%
[1]; treated mice
  reduction in the expression levels of CD206 marker in macrophages: 18%
[1]; treated vs non-treated mice
  expression levels or number of CD209 cells (M2 macrophages): did not observe any difference
  percentage of positive cells or expression of CD80 and DR (M1 markers): did not observe changes
[1]; vs non-treated mice
  lower number of CD163+ cells: 3%
  lower number of CD206+ cells: 10%
[2]
  release of collagen-I to the culture medium: reversed
[3]
  cell viability: did not affect cell viability; also recorded: neither C3-exoenzyme nor fasudil had any effect on cell viability
[4]
  effect on PDGF-AA-induced MLC2 phosphorylation: reversed
[5]
  reduction of migration rate: 2.43 fold and 4 fold
[6]; 100 mg/kg/day orally 6 weeks
  reduction in collagen-I area in the quadriceps: 23%
[6]; treated vs non-treated mice
  myofiber size: significant increase
  neutrophil population in quadriceps: trend towards a reduction
  number of T and B cells in quadriceps: no changes
[6]; treated vs non-treated, not significant
  decrease in the PDGFRα area (number of FAPs) in quadriceps: 42%
[6]; treated vs untreated mice
  reduction of quadriceps area stained with F4/80 (macrophages): 74%
[7]
  polymerization of intracellular actin filaments: impinged
[8]
  behaviour during the treatment period (adverse effects): did not experience any change in their behaviour
  body weight, treated vs untreated mice: decrease in weight
[9]; 100 mg/kg/day orally 6 weeks
  RhoA pathway downstream effector targets (ROCK2, LIMK2, FHOD1): inhibited RhoA pathway
[9]; treated vs untreated mice
  protein expression of LIMK2: significantly reduced
  protein expression of MLC2: significantly reduced
[10]
  increase in forelimb strength: 1.76 fold
[11]
  decrease in proliferation rate: 2.6 fold
  proliferation inhibition: lack of proliferation inhibition
[12]
  TNFα, IL-4, IL-17, CXCL1, CXCL2, CXCL10, CCL2, CCL3 or CCL17 cytokine levels: reduction

## PDGF-AA
[2]; 4 days treatment
  release of collagen-I to the culture medium: increased non-significantly
[3]
  cell viability: did not affect cell viability
[4]; DMD-FAPs treated with PDGF-AA
  increase in MLC2 phosphorylation: 2.3 fold
[5]; 48 hours
  increase in FAPs migration: 2.48 fold
[5]; 72 hours
  increase in FAPs migration: 3.37 fold
[7]
  polymerization of intracellular actin filaments: induced polymerization
[13]
  increase in the RhoA-GTP levels: 1.88 fold
[11]; 48 hours
  increase in FAPs proliferation: 3.6 fold
[11]; 72 hours
  increase in FAPs proliferation: 6 fold

From US20250312332A1, “TREATMENT OF MUSCLE FIBROSIS” (University of Newcastle upon Tyne, priority 2022, published 2025)
